According to publication PMC4102931 (Investigational new drugs, 2010):
Read-outs that look alike come from different tables or passages of the source. Marks after values point to notes of the source that are not given here. Each block holds one molecule with its values, some of them ahead of it.

Key:
[1] = human, in vivo
clinical = conditions: human, in vivo
[2] = Chemotherapy pharmacokinetics alone; conditions: for Change in the geometric mean chemotherapy pharmacokinetic parameters when given alone or in combination with cediranib: limited pharmacokinetic data; for AUC / Cmax: alone (cycle 1, day 1), geometric mean (CV%)
[3] = test system: patients with advanced solid tumors; test: Safety and tolerability: adverse events graded by NCI CTC version 3.0; format: in vivo, human
[4] = test system: patients with advanced solid tumors; test: Dose-limiting toxicities and maximum tolerated dose; format: in vivo, human; conditions: for MTD of cediranib: once-daily oral
[5] = Steady-state pharmacokinetics of cediranib given with chemotherapy; format: in vivo, human; conditions: for Css,max / AUC: geometric mean (CV%); for AUC / Tmax: human, plasma, oral; for AUC: AUCss; for Tmax: median (range)
advanced solid tumors = test: Tumor response evaluation; format: in vivo, human
[6] = ref Trial 2171IL0001, cited from earlier work; for Tmax: median (range)
[7] = test system: patients with a broad range of advanced solid tumors; conditions: cited from earlier work
[8] = test system: patients with advanced CRC; conditions: previous phase I study; cited from earlier work
[9] = all arms, cediranib with chemotherapy
[10] = 20 mg, Arm 1 (with mFOLFOX6), cediranib 20 mg, n=5
[11] = 20 mg, Arm 3A (with irinotecan), cediranib 20 mg, n=5
[12] = 20 mg, Arm 3B (with irinotecan and cetuximab), cediranib 20 mg, n=3
[13] = 30 mg, Arm 2 (with docetaxel), cediranib 30 mg, n=8

SMILES: O=c1[nH]cc(F)c(=O)[nH]1 [5-FU]
Cmax [1]: 544 (72.9) ng/mL

SMILES: CC(=O)O[C@@]12CO[C@@H]1C[C@H](O)[C@@]1(C)C(=O)[C@H](O)C3=C(C)[C@@H](OC(=O)[C@H](O)[C@@H](NC(=O)OC(C)(C)C)c4ccccc4)C[C@@](O)([C@@H](OC(=O)c4ccccc4)[C@H]21)C3(C)C [Docetaxel]
AUC (clinical; AUC): 3770 ng·h/mL

SMILES: O=C1[O][Pt]2([NH][C@@H]3CCCC[C@H]3[NH]2)[O]C1=O [Oxaliplatin, reference compound]
Change in the geometric mean chemotherapy pharmacokinetic parameters when given alone or in combination with cediranib [2]: < 2 fold

SMILES: CCc1c2c(nc3ccc(O)cc13)-c1cc3c(c(=O)n1C2)COC(=O)[C@]3(O)CC [SN38]
AUC ([2]; Arm 3A): 595 (53.5) ng/mL•h | Cmax ([2]; Arm 3A): 35.4 (50.1) ng/mL | AUC ([2]; Arm 3B (with cetuximab)): 482 (22.3) ng/mL•h | Cmax ([2]; Arm 3B (with cetuximab)): 29.1 (21.0) ng/mL | Change in the geometric mean chemotherapy pharmacokinetic parameters when given alone or in combination with cediranib [2]: < 2 fold

SMILES: COc1cc2c(Oc3ccc4[nH]c(C)cc4c3F)ncnc2cc1OCCCN1CCCC1 [cediranib, Cediranib]
Serious adverse events of hypertension ([3]; across all arms): Three | CTC grade 1 hypertension ([3]; across all arms, n=59): 21 patients | CTC grade 3 hypertension ([3]; across all arms, n=59): three | CTC grade 3 leukopenia ([3]; across all arms, n=59): nine | CTC grade 3 neutropenia ([3]; across all arms, n=59): 11 patients | CTC grade 3 or 4 diarrhea of any causality ([3]; across all arms, n=59): 12 patients | CTC grade 3 or 4 fatigue of any causality ([3]; across all arms, n=59): 16 patients | CTC grade 3 or 4 leukopenia of any causality ([3]; across all arms, n=59): 13 patients | CTC grade 3 or 4 neutropenia of any causality ([3]; across all arms, n=59): 19 patients | CTC grade 4 leukopenia ([3]; across all arms, n=59): four | CTC grade 4 neutropenia ([3]; across all arms, n=59): 8 patients | Serious adverse event: fatigue ([3]; across all arms, number (%)): 16 (27%) patients | Serious adverse event: leukopenia ([3]; across all arms, number (%)): 12 (20%) patients | Serious adverse event: neutropenia ([3]; across all arms, number (%)): 18 (30%) patients | Patients discontinued due to diarrhea ([3]; across the study): three | Patients discontinued due to fatigue ([3]; across the study): two | Abdominal pain, any grade (%), Total (n=59) [3, 9]: 16 (27%) | Alopecia, any grade (%), Total (n=59) [3, 9]: 15 (25%) | Anorexia, any grade (%), Total (n=59) [3, 9]: 25 (42%) | Decreased weight, any grade (%), Total (n=59) [3, 9]: 21 (36%) | Dehydration, any grade (%), Total (n=59) [3, 9]: 19 (32%) | Dyspnea, any grade (%), Total (n=59) [3, 9]: 18 (31%) | Headache, any grade (%), Total (n=59) [3, 9]: 16 (27%) | Leukopenia, any grade (%), Total (n=59) [3, 9]: 20 (34%) | Nausea, any grade (%), Total (n=59) [3, 9]: 36 (61%) | Neutropenia, any grade (%), Total (n=59) [3, 9]: 27 (46%) | Vomiting, any grade (%), Total (n=59) [3, 9]: 30 (51%) | Adverse events of proteinuria (all CTC grade 1 or 2) ([3]; all study arms except arm 4): Seven | Increases in blood TSH above the normal range (> 5 mU/L) ([3]; overall): 26 patients | Neutrophil counts of less than 1×10^9/L ([3]; overall, n=59): Fourteen | Patients discontinuing due to adverse events ([3]; total, number (%)): 12 (20%) patients | MTD of cediranib ([4]; in combination with docetaxel (arm 2)): 30 mg | MTD of cediranib according to the protocol definition ([4]; in combination with irinotecan and cetuximab): 20 mg | MTD of cediranib ([4]; in combination with irinotecan): 20 mg | MTD of cediranib ([4]; in combination with mFOLFOX6): 20 mg | MTD of cediranib ([4]; in combination with pemetrexed (arm 4)): 30 mg | Css,max ([5]; Arm 1 (with mFOLFOX6), cediranib 20 mg, n=5): 65.3 (86.2) ng/mL | Css,max ([5]; Arm 2 (with docetaxel), cediranib 30 mg, n=8): 62.5 (53.3) ng/mL | Css,max ([5]; Arm 3A (with irinotecan), cediranib 20 mg, n=5): 76.0 (57.6) ng/mL | Css,max ([5]; Arm 3B (with irinotecan and cetuximab), cediranib 20 mg, n=3): 50.9 (126) ng/mL | Css,max ([5]; Arm 4 (with pemetrexed), cediranib 30 mg, n=4): 74.9 (31.6) ng/mL | AUC [5, 10]: 986 ng·h/mL | AUC [5, 11]: 1010 ng·h/mL | AUC [5, 12]: 668 ng·h/mL | Tmax [5, 10]: 4 h | Tmax [5, 11]: 2.1 h | Tmax [5, 12]: 4 h | AUC [5, 13]: 1100 ng·h/mL | Tmax [5, 13]: 5 h | Partial tumor responses, all arms (advanced solid tumors; 46 patients with efficacy data, 35 evaluable by RECIST): four | Median duration of treatment of the four patients with partial response (advanced solid tumors; range 154-384): 319 days | Css,max ([6]; single-agent cediranib 20 mg, multiple once-daily oral doses, n=11, geometric mean (CV%)): 66.6 (52.9) ng/mL | AUCss ([6]; single-agent cediranib 20 mg, n=11, geometric mean (CV%)): 774 (51.6) ng/mL•h | Tmax ([6]; single-agent cediranib 20 mg, n=11): 3.0 (2.0, 6.4) h | AUCss ([6]; single-agent cediranib 30 mg, n=12, geometric mean (CV%)): 741 (48.7) ng/mL•h | Tmax ([6]; single-agent cediranib 30 mg, n=12): 2.1 (1.0, 4.0) h | Doses at which cediranib monotherapy was generally well tolerated [7]: ≤ 45 mg/day | Recommended phase II dose in combination with mFOLFOX6 [8]: 30 mg/day

Further lines, results first:

Cmax [1]: 3040 (18.3) ng/mL | Cmax (clinical; Cmax): 3290 ng/mL
SMILES: CCc1c2c(nc3ccc(OC(=O)N4CCC(N5CCCCC5)CC4)cc13)-c1cc3c(c(=O)n1C2)COC(=O)[C@]3(O)CC [Irinotecan]

AUC [1]: 295 (37.7)^e u.g.h/mL | Cmax [1]: 180 (14.2)^e u.g/mL
SMILES: Nc1nc2[nH]cc(CCc3ccc(C(=O)N[C@@H](CCC(=O)O)C(=O)O)cc3)c2c(=O)[nH]1 [Pemetrexed]
